From US12077503B2, “Substituted cyclic amides and their use as herbicides” (FMC CORPORATION, priority 2015, dated 2024)

Experiments:
Assay type in all cases: in vivo
[1] = tested on: velvetleaf (Abutilon theophrasti); assay: Test G Post-Emergence Protocol; details: Abutilon theophrasti, post-emergence, 312 h
Summary of the method: (§1)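 Sow in soil; grow 8 d (24/16 °C, 14 h light, 65% humidity); spray 15.625/62.5/250 g/ha in acetone:water 50:50 + 0.5% Tween 20; grow on, water twice daily; score damage 0–100 at 13 d.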

[2] = tested on: redroot pigweed (Amaranthus retroflexus); assay: Test G Post-Emergence Protocol; details: Amaranthus retroflexus, post-emergence, 312 h
Summary of the method: as §1

[3] = tested on: barnyardgrass (Echinochloa crus-galli); assay: Test G Post-Emergence Protocol; details: Echinochloa crus-galli, post-emergence, 312 h
Summary of the method: as §1

corn (Zea mays) [4] = assay: Test G Post-Emergence Protocol; details: Zea mays, post-emergence, 312 h
Summary of the method: as §1

[5] = tested on: giant foxtail (Setaria faberi); assay: Test G Post-Emergence Protocol; details: Setaria faberi, post-emergence, 312 h
Summary of the method: as §1

[6] = tested on: ivy-leaved morning glory (Ipomoea hederacea); assay: Test G Post-Emergence Protocol; details: Ipomoea, post-emergence, 312 h
Summary of the method: as §1

[7] = tested on: velvetleaf (Abutilon theophrasti); assay: Test G Pre-Emergence Protocol; details: Abutilon theophrasti, pre-emergence, 312 h, evaluated after 13 days
Summary of the method: (§2)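 Herbicidal effect was rated 13 days post-application on a scale where 100 equals total damage. Spraying took place the day after sowing, using 15.625, 62.5 or 250 g/ha of compound in a 50:50 acetone/water solution with 0.5% Tween 20.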

[8] = tested on: redroot pigweed (Amaranthus retroflexus); assay: Test G Pre-Emergence Protocol; details: Amaranthus retroflexus, pre-emergence, 312 h, evaluated after 13 days
Summary of the method: as §2

[9] = tested on: barnyardgrass (Echinochloa crus-galli); assay: Test G Pre-Emergence Protocol; details: Echinochloa crus-galli, pre-emergence, 312 h, evaluated after 13 days
Summary of the method: as §2

corn (Zea mays) [10] = assay: Test G Pre-Emergence Protocol; details: Zea mays, pre-emergence, 312 h, evaluated after 13 days
Summary of the method: as §2

[11] = tested on: giant foxtail (Setaria faberi); assay: Test G Pre-Emergence Protocol; details: Setaria faberi, pre-emergence, 312 h, evaluated after 13 days
Summary of the method: as §2

[12] = tested on: ivy-leaved morning glory (Ipomoea hederacea); assay: Test G Pre-Emergence Protocol; details: Ipomoea, pre-emergence, 312 h, evaluated after 13 days
Summary of the method: as §2

CN1C[C@@H](c2ccc(C(F)(F)F)cc2)[C@H](C(=O)Nc2sccc2C#N)C1=O (racemic) [Compound 1520]
pest or weed control at 15.625 g/ha ([1]; 15.625 g ai/ha, evaluated after 13 days (100=total damage to plant; 0=no damage to plant), read-out: Velvetleaf damage rating): 0% | pest or weed control at 62.5 g/ha ([1]; 62.5 g ai/ha, evaluated after 13 days, read-out: Velvetleaf damage rating (100=total damage to plant; 0=no damage to plant)): 0% | pest or weed control at 250 g/ha ([1]; 250 g ai/ha, evaluated after 13 days, read-out: damage to plant, Velvetleaf (100=total damage to plant; 0=no damage to plant)): 10% | pest or weed control at 15.625 g/ha ([2]; 15.625 g ai/ha, evaluated after 13 days (100=total damage to plant; 0=no damage to plant), read-out: Pigweed, Redroot damage rating): 0% | pest or weed control at 62.5 g/ha ([2]; 62.5 g ai/ha, evaluated after 13 days, read-out: Pigweed, Redroot damage rating (100=total damage to plant; 0=no damage to plant)): 0% | pest or weed control at 250 g/ha ([2]; 250 g ai/ha, evaluated after 13 days, read-out: damage to plant, Pigweed, Redroot (100=total damage to plant; 0=no damage to plant)): 10% | pest or weed control at 15.625 g/ha ([3]; 15.625 g ai/ha, evaluated after 13 days (100=total damage to plant; 0=no damage to plant), read-out: Barnyardgrass damage rating): 0% | pest or weed control at 62.5 g/ha ([3]; 62.5 g ai/ha, evaluated after 13 days, read-out: Barnyardgrass damage rating (100=total damage to plant; 0=no damage to plant)): 30% | pest or weed control at 250 g/ha ([3]; 250 g ai/ha, evaluated after 13 days, read-out: damage to plant, Barnyardgrass (100=total damage to plant; 0=no damage to plant)): 60% | plant injury at 15.625 g/ha (corn (Zea mays) [4]; 15.625 g ai/ha, evaluated after 13 days (100=total damage to plant; 0=no damage to plant), read-out: Corn damage rating): 0% | plant injury at 62.5 g/ha (corn (Zea mays) [4]; 62.5 g ai/ha, evaluated after 13 days, read-out: Corn damage rating (100=total damage to plant; 0=no damage to plant)): 0% | plant injury at 250 g/ha (corn (Zea mays) [4]; 250 g ai/ha, evaluated after 13 days, read-out: damage to plant, Corn (100=total damage to plant; 0=no damage to plant)): 20% | pest or weed control at 15.625 g/ha ([5]; 15.625 g ai/ha, evaluated after 13 days (100=total damage to plant; 0=no damage to plant), read-out: Foxtail, Giant damage rating): 0% | pest or weed control at 62.5 g/ha ([5]; 62.5 g ai/ha, evaluated after 13 days, read-out: Foxtail, Giant damage rating (100=total damage to plant; 0=no damage to plant)): 30% | pest or weed control at 250 g/ha ([5]; 250 g ai/ha, evaluated after 13 days, read-out: damage to plant, Foxtail, Giant (100=total damage to plant; 0=no damage to plant)): 70% | pest or weed control at 15.625 g/ha ([6]; 15.625 g ai/ha, evaluated after 13 days (100=total damage to plant; 0=no damage to plant), read-out: Morningglory, Ivy-leaved damage rating): 10% | pest or weed control at 62.5 g/ha ([6]; 62.5 g ai/ha, evaluated after 13 days, read-out: Morningglory, Ivy-leaved damage rating (100=total damage to plant; 0=no damage to plant)): 30% | pest or weed control at 250 g/ha ([6]; 250 g ai/ha, evaluated after 13 days, read-out: damage to plant, Morningglory, Ivy-leaved (100=total damage to plant; 0=no damage to plant)): 40% | pest or weed control at 15.625 g/ha ([7]; 15.625 g ai/ha, read-out: Velvetleaf damage rating (100=total damage to plant; 0=no damage to plant)): 0% | pest or weed control at 62.5 g/ha ([7]; 62.5 g ai/ha, 100=total damage to plant, 0=no damage to plant, read-out: plant damage rating, Velvetleaf): 0% | pest or weed control at 250 g/ha ([7]; 250 g ai/ha, read-out: Velvetleaf damage rating (100=total damage to plant; 0=no damage to plant)): 0% | pest or weed control at 15.625 g/ha ([8]; 15.625 g ai/ha, read-out: Pigweed, Redroot damage rating (100=total damage to plant; 0=no damage to plant)): 0% | pest or weed control at 62.5 g/ha ([8]; 62.5 g ai/ha, 100=total damage to plant, 0=no damage to plant, read-out: plant damage rating, Pigweed, Redroot): 0% | pest or weed control at 250 g/ha ([8]; 250 g ai/ha, read-out: Pigweed, Redroot damage rating (100=total damage to plant; 0=no damage to plant)): 30% | pest or weed control at 15.625 g/ha ([9]; 15.625 g ai/ha, read-out: Barnyard grass damage rating (100=total damage to plant; 0=no damage to plant)): 20% | pest or weed control at 62.5 g/ha ([9]; 62.5 g ai/ha, 100=total damage to plant, 0=no damage to plant, read-out: plant damage rating, Barnyardgrass): 50% | pest or weed control at 250 g/ha ([9]; 250 g ai/ha, read-out: Barnyardgrass damage rating (100=total damage to plant; 0=no damage to plant)): 90% | plant injury at 15.625 g/ha (corn (Zea mays) [10]; 15.625 g ai/ha, read-out: Corn damage rating (100=total damage to plant; 0=no damage to plant)): 0% | plant injury at 62.5 g/ha (corn (Zea mays) [10]; 62.5 g ai/ha, 100=total damage to plant, 0=no damage to plant, read-out: plant damage rating, Corn): 0% | plant injury at 250 g/ha (corn (Zea mays) [10]; 250 g ai/ha, read-out: Corn damage rating (100=total damage to plant; 0=no damage to plant)): 0% | pest or weed control at 15.625 g/ha ([11]; 15.625 g ai/ha, read-out: Foxtail, Giant damage rating (100=total damage to plant; 0=no damage to plant)): 20% | pest or weed control at 62.5 g/ha ([11]; 62.5 g ai/ha, 100=total damage to plant, 0=no damage to plant, read-out: plant damage rating, Foxtail, Giant): 60% | pest or weed control at 250 g/ha ([11]; 250 g ai/ha, read-out: Foxtail, Giant damage rating (100=total damage to plant; 0=no damage to plant)): 80% | pest or weed control at 15.625 g/ha ([12]; 15.625 g ai/ha, read-out: Morning-glory, Ivy-leaved damage rating (100=total damage to plant; 0=no damage to plant)): 0% | pest or weed control at 62.5 g/ha ([12]; 62.5 g ai/ha, 100=total damage to plant, 0=no damage to plant, read-out: plant damage rating, Morningglory, Ivy-leaved): 0% | pest or weed control at 250 g/ha ([12]; 250 g ai/ha, read-out: Morningglory, Ivy-leaved damage rating (100=total damage to plant; 0=no damage to plant)): 0%
